Data: US9802899B2, “Heterocyclic compounds as pesticides” (BAYER CROPSCIENCE AG, priority 2012, dated 2017)

assay: Determination of the log P values by HPLC (formic acid method); format: physicochemical; details: reversed-phase HPLC column (C 18), reversed-phase column (C 18), acidic range (pH 3.4), 55° C.
Method: 1) Description of Method for Determination of the Log P Values (Formic Acid Method)
Eluents for determination in the acidic range (pH 3.4):
Eluent A: acetonitrile+1 ml of formic acid/liter. Eluent B: water+0.9 ml of formic acid/liter.
The lambda max values were determined in the maxima of the chromatographic signals using the UV spectra from 200 nm to 400 nm.

SMILES | chromatographic logP
O=C(Nc1nn(-c2ccccc2Cl)c2ccccc12)c1ccccc1C(F)(F)F [Compound I-5-8, N-[1-(2-Chlorophenyl)-1H-indazol-3-yl]-2-(trifluoromethyl)benzamide] | 3.54
CCCc1ccc(C#N)c(-n2ccc(NC(=O)c3ccccc3C(F)(F)F)n2)n1 [Compound I-1-573, N-[1-(3-Cyano-6-propylpyridin-2-yl)-1H-pyrazol-3-yl]-2-(trifluoromethyl)benzamide] | 3.8
O=C(Nc1ccn(-c2nccnc2F)n1)c1ccccc1Cl [Compound I-1-174, 2-Chloro-N-[1-(3-fluoropyrazin-2-yl)-1H-pyrazol-3-yl]benzamide] | 2.03
Nc1cnn(-c2ncc(C(F)(F)F)cc2Cl)n1 [2-[3-Chloro-5-(trifluoromethyl)pyridin-2-yl]-2H-1,2,3-triazole-4-amine] | 1.74
Nc1ccn(-c2cc(F)cnc2F)n1 [1-(2,5-difluoropyridin-3-yl)-1H-pyrazole-3-amine] | 1.15
Nc1ccn(-c2ncc(Cl)cc2F)n1 [1-(5-Chloro-3-fluoropyridin-2-yl)-1H-pyrazole-3-amine] | 1.27
O=C(Nc1nn(-c2ncc(F)cc2F)c2ccc(F)cc12)c1ccccc1C(F)(F)F [Compound I-5-2, N-[1-(3,5-Difluoropyridin-2-yl)-5-fluoro-1H-indazol-3-yl]-2-(trifluoromethyl)benzamide] | 3.37
Nc1nn(-c2ccccc2Cl)cc1Cl [4-Chloro-1-(2-chlorophenyl)-1H-pyrazole-3-amine] | 2.14
Nc1ccn(-c2cccc(Cl)c2F)n1 [1-(3-Chloro-2-fluorophenyl)-1H-pyrazole-3-amine] | 1.9
CC(=O)c1cc(F)c(-n2ccc(NC(=O)c3ccccc3C(F)(F)F)n2)c(F)c1 [Compound I-1-584, N-[1-(4-Acetyl-2,6-difluorophenyl)-1H-pyrazol-3-yl]-2-(trifluoromethyl)benzamide] | 2.7

same assay, conditions: reversed-phase column (C 18), acidic range (pH 3.4), 55° C.

SMILES | log P
O=C(Nc1ccn(-c2c(F)cccc2F)n1)c1c(F)cccc1F [Compound I-1-84] | 2.42
Cc1noc(C(F)F)c1C(=O)Nc1ccn(-c2ncc(F)cc2F)n1 [Compound I-1-157] | 2.33
CC(C)Cn1ncc(I)c1C(=O)Nc1ccn(-c2ncc(F)cc2F)n1 [Compound I-1-539] | 3.28
COc1ccc(Cl)c(C(=O)Nc2ccn(-c3ncc(F)cc3F)n2)c1 [Compound I-1-483] | 2.51
O=C(Nc1cnn(-c2c(F)cccc2F)n1)c1ccsc1I [Compound I-2-40] | 2.90
CCOc1c(F)cccc1-n1ccc(NC(=O)c2ccccc2Cl)n1 [Compound I-1-397] | 2.74
Cc1cc(C)c(C#N)c(-n2ccc(NC(=O)c3ccccc3C(F)(F)F)n2)n1 [Compound I-1-567] | 3.15
Cc1cccnc1C(=O)Nc1ccn(-c2ccccc2Br)n1 [Compound I-1-336] | 1.44
O=C(c1cccnc1C(F)(F)F)N(C(=O)c1cccnc1C(F)(F)F)c1ccn(-c2ncccc2F)n1 [Compound I-1-134] | 2.93
COc1ccccc1-n1ccc(NC(=O)c2ccccc2Br)n1 [Compound I-1-2] | 2.69
Cn1cc(C(=O)Nc2cnn(-c3c(F)cccc3F)n2)c(C(F)F)n1 [Compound I-2-78] | 2.22
C#CCN(C(=O)c1ccccc1Cl)c1ccn(-c2ccccc2Cl)n1 [Compound I-1-23] | 3.25
O=C(Nc1ccn(-c2cnc(Cl)cn2)n1)c1ccccc1I [Compound I-1-390] | 2.96
O=C(Nc1cnn(-c2c(F)cccc2F)n1)c1cnccc1C(F)(F)F [Compound I-2-83] | 2.36
O=C(Nc1ccn(-c2ncc(Cl)cc2F)n1)c1ccccc1C(F)(F)F [Compound I-1-587] | 2.91
O=[N+]([O-])c1ccn(-c2c(F)cccc2F)c1 [Ex. 46-II, 1-(2,6-Difluorophenyl)-3-nitro-M-pyrrole] | 2.58
O=C(Nc1cnn(-c2c(F)cccc2F)n1)c1cccnc1C(F)(F)F [Compound I-2-76] | 2.40
CC1=C(C(=O)Nc2ccn(-c3c(F)cccc3F)n2)CCCO1 [Compound I-1-333] | 2.30
O=C(Nc1ccn(-c2c(F)cccc2F)n1)c1c(C(F)(F)F)cc(F)c(F)c1F [Compound I-1-296] | 3.14
N#Cc1c(F)cccc1-n1ccc(NC(=O)c2ccccc2Br)n1 [Compound I-1-620] | 2.61

SMILES | log P
O=C(Nc1ccn(-c2ncc(F)cn2)n1)c1ccccc1C(F)(F)F [Compound I-1-600] | 2.13
Cn1nc(C(F)(F)C(F)(F)F)c(C#N)c1C(=O)Nc1ccn(-c2c(F)cccc2F)n1 [Compound I-1-317] | 3.37
CCc1cc(NC(=O)c2ccccc2C(F)(F)F)nn1-c1ccc(F)cc1F [Compound I-1-201] | 4.15
Cc1nn(C(F)F)c(C(=O)Nc2ccn(-c3c(F)cccc3F)n2)c1F [Compound I-1-231] | 2.89
O=C(Nc1ccn(-c2ccccc2Cl)n1)c1nccnc1C(F)(F)F [Compound I-1-44] | 2.74
O=C(Nc1ccn(-c2ccc(F)cn2)n1)c1cccnc1C(F)(F)F [Compound I-1-597] | 2.32
N#Cc1cncnc1-n1ccc(NC(=O)c2ccccc2C(F)(F)F)n1 [Compound I-1-594] | 2.34
O=C(Nc1ccn(-c2ncc(F)cc2F)n1)c1c(Cl)cccc1C(F)(F)F [Compound I-1-638] | 2.70
CSc1ncccc1C(=O)Nc1ccn(-c2c(F)cccc2F)n1 [Compound I-1-249] | 2.38
O=C(c1ccccc1C(F)(F)F)N(CC1CC1)c1ccn(-c2ncc(F)cc2F)n1 [Compound I-1-471] | 3.62
O=C(Nc1ccn(-c2ncc(F)cc2F)n1)c1snnc1C1CC1 [Compound I-1-537] | 2.45
O=C(Nc1ccn(-c2ncc(F)cc2F)n1)c1c(F)cccc1Br [Compound I-1-637] | 2.50
O=C(Nc1ccn(-c2ncc(F)cn2)n1)c1ccccc1Cl [Compound I-1-604] | 1.91
N#Cc1cc(F)ccc1-n1ccc(NC(=O)c2c(F)cccc2C(F)(F)F)n1 [Compound I-1-632] | 2.64
O=C(Nc1cnn(-c2ncccc2Cl)n1)c1c(F)cccc1F [Compound I-2-15] | 2.09
Cc1nonc1C(=O)Nc1ccn(-c2ncc(F)cc2F)n1 [Compound I-1-542] | 2.22
O=C(Nc1ccn(-c2cc(F)cnc2F)n1)c1ccccc1Cl [Compound I-1-225] | 2.59
O=C(Nc1ccn(-c2ncc(F)cc2F)n1)c1ncccc1C(F)(F)F [Compound I-1-502] | 2.38
Cc1oc(C)c(C(=O)Nc2ccn(-c3c(F)cccc3F)n2)c1Br [Compound I-1-304] | 3.38
Nc1cc(NC(=O)c2ccccc2Br)nn1-c1ccccc1Cl [Compound I-1-355] | 1.94

SMILES | log P
Cc1onc(C(=O)Nc2ccn(-c3c(F)cccc3F)n2)c1C [Compound I-1-297] | 2.76
O=C(Nc1ccn(-c2c(F)cccc2F)n1)c1c(Cl)cccc1C(F)(F)F [Compound I-1-614] | 2.86
O=C(Nc1ccn(-c2cccnc2Cl)n1)c1ccccc1C(F)(F)F [Compound I-1-391] | 2.31
Cc1ccccc1C(=O)Nc1ccn(-c2ncc(F)cc2F)n1 [Compound I-1-499] | 2.36
O=C(Nc1ccn(-c2ncc(F)cc2F)n1)c1sccc1Cl [Compound I-1-503] | 2.61
Cc1nn(C)c(C(=O)Nc2ccn(-c3c(F)cccc3F)n2)c1C(F)F [Compound I-1-294] | 2.34
Cc1nc(C)c(C(=O)Nc2ccn(-c3c(F)cccc3F)n2)s1 [Compound I-1-113] | 2.09
O=C(Nc1ccn(-c2c(F)cccc2F)c1)c1c(F)cccc1F [Compound I-3-2] | 2.68
CC(=O)Nc1ccccc1C(=O)Nc1ccn(-c2c(F)cccc2F)n1 [Compound I-1-269] | 2.20
O=C(Nc1ccn(-c2ncc(F)cc2F)n1)c1c(Cl)cccc1Cl [Compound I-1-479] | 2.51
O=C(Nc1ccn(-c2cccc(Cl)c2Cl)n1)c1ccccc1Br [Compound I-1-187] | 3.41
O=C(Nc1ccn(-c2ncc(F)cc2F)n1)c1ncncc1Cl [Compound I-1-545] | 1.92
O=C(Nc1ccn(-c2ccccc2Cl)n1)c1ccccc1F [Compound I-1-19] | 2.89
O=C(Nc1cnn(-c2ncccc2Cl)n1)c1ccccc1Cl [Compound I-2-12] | 2.22
O=C(Nc1ccn(-c2c(F)cccc2F)n1)c1c(F)cccc1C(F)(F)F [Compound I-1-276] | 2.72
O=C(Nc1ccn(-c2ncccc2Br)n1)c1ccccc1Cl [Compound I-1-553] | 2.23
Cc1nn(C)c(C(=O)Nc2ccn(-c3c(F)cccc3F)n2)c1[N+](=O)[O-] [Compound I-1-233] | 2.23
Cc1cccnc1C(=O)Nc1ccn(-c2c(F)cccc2F)n1 [Compound I-1-90] | 2.86
